We go through six compounds from US20210298297A1, “MOSQUITO ATTRACTANTS” (Wageningen Universiteit, priority 2018, published 2021).

Experiment [1] has as its system Anopheles coluzzii. In words: Dual-port olfactometer preference test of IAC and IAC blends. In kind it is in vivo. As to conditions: for behavioural response on supplementing parasite-free odour with the IAC alone: individual IAC, at least two concentrations, with parasite-free odour (socks) vs parasite-free odour alone. Here is the method: Six IAC (heptanal, octanal, nonanal, (E)-2-octenal, (E)-2-decenal and 2-octanone) were tested in a background of odour from the worn nylon socks of twelve parasite-free children (18S qPCR confirmed). Each sock pair was cut into twelve strips after removing the foot part, then 12 bundles were made, each containing a strip from each individual. Bundles were stored at −20° C. until, and between, experiments. IAC were positioned downwind and separated from sock bundles by a metal grid, ensuring no contact. Parasite-free odour (bundles) was tested with or without individual IAC (in 10 μL hexane on filter paper) and against the same but with hexane alone.
Next, we verified whether the IAC could improve a mosquito lure for monitoring or mass trapping of Anopheles. Heptanal, the most promising candidate from the above experiment, was tested as well as two blends: Plas 5 contained the IAC that were associated with parasitological positivity (nonanal, heptanal, octanal, (E)-2-decenal and (E)-2-octenal), and Plas 6 additionally contained the gametocyte-associated 2-octanone (FIG. 3). Each of Plas 5 and Plas 6 were made up in hexane by weighing the appropriate amounts of constituent compounds into a volumetric flask. […] Plas 5 and Plas 6 were tested with the synthetic lure MB5^36 at four concentrations, each decreasing by a factor of 10 from the 100% concentration by serial dilution.
MB5 was presented on nylon strips as described in Menger et al. (2014)^36 (except the five compounds were incubated onto a single 5×26.5 cm nylon strip instead of five narrower strips). 10 μl of the Plas5 or Plas6 blend at 100% or serial dilution was pipetted onto a filter paper and added in the same olfactometer trap.
A triple chamber dual-port olfactometer^59 was used to test the preference of 30 five- to eight-day-old female, non blood-fed Anopheles coluzzii (Suokoko strain^21, rearing procedures as published previously^21) for parasite free odour or MB5, supplemented with IAC or IAC blends, against background odour alone (parasite-free odour or MB5). Mosquitoes were maintained in a release cage prior to testing (for 16-22 hours). Experiments took place during the last four hours of the scotophase under near-dark conditions (<1 lux). Mosquitoes were allowed to fly for 15 minutes, then those that had entered the traps with test/control odours were counted. Each IAC/concentration combination was tested eight-nine times on different days, and each Plas concentration 10-11 times on different days, rotating treatments between the left and right port of the olfactometer. Climatic data (R.H., temperature and air pressure) were recorded in the flight chambers and in the surrounding room.
Generalized linear models (GLMs) were used to test the effect of odours (individual IAC/heptanal/Plas blends) on relative attractiveness (the proportion of mosquitoes selecting the test odour). GLMs were run as described above (statistical analysis, attractiveness of ‘infected odour’ (socks) by cage assays), testing parameters associated with the set-up as additional factors or covariates in the model, and retaining when significant (P<0.05, F-test). Sets of compounds were run in separate models. SPSS® was used for the analyses.

For experiment [2], the system named is Anopheles coluzzii antennae. In words: Gas chromatography-electroantennography (GC-EAG) of pooled odour samples. As to conditions: analytes in pooled foot odour extracts; >3 responses of 6/7 repetitions = EAG-active. On the procedure:
Porapak filters were eluted using re-distilled diethyl ether (750 μL), and, to approximate an “average” odour per category, extracts were pooled according to the individual's parasitological status: (1) Plasmodium infection, no gametocytes (2) high-density P. falciparum gametocytes (3) parasite-free individuals, (4) Plasmodium infection, sub-microscopic P. falciparum gametocytes. Aliquots (400 μL) of extracts were mixed, then concentrated (to 60 μL) under a stream of nitrogen (charcoal-filtered). Glassware, charcoal filters and PTFE tubing were cleaned as before.
GC-EAG was conducted during the scotophase, using four- to eight- day-old, unfed female Anopheles coluzzii (N′gousso strain^56). Adults were maintained at 70% RH, with a 12 h light/dark cycle (scotophase 09:00-21:00) and access to 50% glucose solution. The order of testing blends was determined by a 5×5 Latin square (including control blend). The mosquito head was dissected, and the palps, proboscis, and half of the terminal (13th) antennal flagellomere cut off. The indifferent electrode was inserted into the back of the head and the antennal tips guided into the recording electrode to complete the circuit (FIG. 3). Electrodes were hand-pulled glass tips inserted over silver wire (diameter 0.37 mm; Harvard Apparatus, Edenbridge, UK) and filled with Ringers' solution^15. […] The eluate was split to the FID detector and EAG interface at a ratio of 1:1. At the EAG interface, the eluate passed from the heated splitter column to a stream of charcoal filtered, humidified air (flow rate 400 mL/min). This airflow was directed over the antenna at a distance of 5 mm. The signal was amplified ×10,000 by the Intelligent Data Acquisition Controller-4, and signals were analysed using EAD 2000 software (both Syntech®, Hilversum, The Netherlands). Responses were signified by a depolarisation of sufficient amplitude. Peaks that elicited responses in more than 3, of the 6/7 total repetitions, were considered to be EAG-active.

For `CCCCCCC(C)=O` [2-octanone], the “behavioural response on supplementing parasite-free odour with the IAC alone” value in experiment [1] is “did not induce altered behavioural responses”.
Same read-out and setting: the result for `CCCCCCC/C=C/C=O` [(E)-2-decenal] reads “did not induce altered behavioural responses”.
Consider `CCCCC/C=C/C=O` [(E)-2-octenal], for which the “behavioural response on supplementing parasite-free odour with the IAC alone” value in experiment [1] was “did not induce altered behavioural responses”.
Regarding `CCCCCCC=O` [heptanal], the “antennal (EAG) response” value in experiment [2] was “elicit antennal response”. Also, the “proportion of mosquitoes selecting the test odour (GLM, 95 CI)” value in experiment [1] (10 μL heptanal at 10^−8 g/mL added to parasite-free odour (socks) vs parasite-free odour alone) is on record as 0.60-0.84. In experiment [1] (heptanal at 10^−7 g/mL added to parasite-free odour vs parasite-free odour alone), the “effect on attractiveness of parasite-free odour” value is “no effect”. In addition, in experiment [1] (three concentrations, data not shown), the “attractiveness of MB5 supplemented with the compound relative to control MB5” value is “equally attractive”.
For the compound `CCCCCCCCC=O` [nonanal], the “antennal (EAG) response” value in experiment [2] was “elicit antennal response”. In addition, in experiment [1], the “behavioural response on supplementing parasite-free odour with the IAC alone” value was “did not induce altered behavioural responses”.
The corresponding values for `CCCCCCCC=O` [octanal] are “elicit antennal response” and “did not induce altered behavioural responses”.
